Test results reported in patent publication US20240368156A1, “2-AZABICYCLO[2.2.1]HEPTANE KRAS INHIBITORS” (INCYTE CORPORATION, priority 2023, published 2024).

Legend:
[1] = biological target: KRAS G12D (Homo sapiens, UniProt P01116, G12D); assay: GDP-GTP exchange assay (bodipy-GDP/GppNHp, SOS1), KRAS G12D; type: biochemical; settings: 2.5 nM bodipy-loaded KRAS G12D, 4 h pre-incubation, 2 h reaction with GppNHp and SOS1; for certain compounds the most potent isomer is quoted; read-out: KRAS_G12D exchange assay IC50
Method: (§1) The inhibitor potency of the exemplified compounds was determined in a fluorescence based guanine nucleotide exchange assay, which measures the exchange of bodipy-GDP (fluorescently labeled GDP) for GppNHp (Non-hydrolyzable GTP analog) to generate the active state of KRAS in the presence of SOS1 (guanine nucleotide exchange factor). Inhibitors were serially diluted in DMSO and a volume of 0.1 μL was transferred to the wells of a black low volume 384-well plate. 5 µL/well volume of bodipy-loaded KRAS G12D diluted to 2.5 nM in assay buffer (25 mM Hepes pH 7.5, 50 mM NaCl, 10 mM MgCl2 and 0.01% Brij-35) was added to the plate and pre-incubated with inhibitor for 4 h at r.t. Appropriate controls (enzyme with no inhibitor or with a G12D inhibitor) were included on the plate. The exchange was initiated by the addition of a 5 μL/well volume containing 1 mM GppNHp and 300 nM SOS1 in assay buffer. The 10 μL/well reaction concentration of the bodipy-loaded KRAS G12D, GppNHp, and SOS1 were 2.5 nM, 500 μM, and 150 nM, respectively. The reaction plates were incubated at r.t. for 2 h, a time estimated for complete GDP-GTP exchange in the absence of inhibitor. For the KRAS G12V mutant, similar guanine nucleotide exchange assays were used with 2.5 nM as final concentration for the bodipy loaded KRAS proteins and 3 h incubation after adding GppNHp-SOS1 mixture. A cyclic peptide described to selectively bind G12D mutant (Sakamoto et al., BBRC 484.3 (2017), 605-611) or internal compounds with confirmed binding were used as positive controls in the assay plates. Fluorescence intensities were measured on a PheraStar plate reader instrument (BMG Labtech) with excitation at 485 nm and emission at 520 nm.
(§2) Either GraphPad prism or Genedata Screener SmartFit was used to analyze the data. The IC50 values were derived by fitting the data to a four parameter logistic equation producing a sigmoidal dose-response curve with a variable Hill coefficient.
(§3) The symbol “†” indicates IC50≤100 nM, “††” indicates IC50>100 nM but ≤1 μM; and “†††” indicates IC50 is >1 μM but ≤5 μM, “††††” indicates IC50 is >5 µM but ≤10 μM. “NA” indicates IC50 not available.

[2] = biological target: KRAS G12V (Homo sapiens, UniProt P01116, G12V); assay: GDP-GTP exchange assay (bodipy-GDP/GppNHp, SOS1), KRAS G12V; type: biochemical; settings: 2.5 nM bodipy-loaded KRAS G12V, 3 h incubation after adding GppNHp-SOS1; for certain compounds the most potent isomer is quoted; read-out: KRAS_G12V exchange assay IC50
Method: as §1, §2, §3

Chain of KRAS G12D (P01116 1-188 isoform P01116-2 G12D): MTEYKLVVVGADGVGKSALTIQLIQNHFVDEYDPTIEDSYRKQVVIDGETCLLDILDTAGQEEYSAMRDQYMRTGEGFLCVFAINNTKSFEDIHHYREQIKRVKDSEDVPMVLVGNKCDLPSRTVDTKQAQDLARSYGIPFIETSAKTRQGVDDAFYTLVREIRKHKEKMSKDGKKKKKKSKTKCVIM
Chain of KRAS G12V (P01116 1-188 isoform P01116-2 G12V): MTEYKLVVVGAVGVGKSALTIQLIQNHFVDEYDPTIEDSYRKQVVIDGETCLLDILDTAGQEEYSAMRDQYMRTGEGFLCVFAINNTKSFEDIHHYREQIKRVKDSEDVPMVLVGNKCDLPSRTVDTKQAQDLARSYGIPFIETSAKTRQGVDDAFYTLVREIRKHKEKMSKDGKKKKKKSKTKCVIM

SMILES	IC50 [1] [µM]	IC50 [2] [µM]
Cc1nc2c(F)c(-c3cccc(Cl)c3Cl)c(CCC#N)cc2c2c1cc([C@H]1[C@H]3C[C@H](C[C@@H]3OC(F)F)N1C(=O)C1CC1)n2[C@H]1[C@H]2CN[C@@H]1C2 (atropisomer, axis not shown; (Ra)) [Example 7, 3-((Ra)-1-((1R,4R,5S)-2-Azabicyclo[2.1.1]hexan-5-yl)-2-((1R,3R,4R,5S)-2-(cyclopropanecarbonyl)-5-(difluoromethoxy)-2-azabicyclo[2.2.1]heptan-3-yl)-7-(2,3-dichlorophenyl)-6-fluoro-4-methyl-1H-pyrrolo[3,2-c]quinolin-8-yl)propanenitrile]	≤ 0.1	≤ 0.1
Cc1nc2c(F)c(-c3cccc(Cl)c3Cl)c(CCC#N)cc2c2c1cc([C@H]1[C@H]3C[C@H](C[C@@H]3OC(F)F)N1C(=O)C1CC1)n2C1[C@H]2CN[C@@H]1C2 (stereo partly drawn) [Example 30, 3-((7R)-1-((1R,4R)-2-azabicyclo[2.1.1]hexan-5-yl)-2-((1R,3R,4R,5S)-2-(cyclopropanecarbonyl)-5-(difluoromethoxy)-2-azabicyclo[2.2.1]heptan-3-yl)-7-(2,3-dichlorophenyl)-6-fluoro-4-methyl-1H-pyrrolo[3,2-c]quinolin-8-yl)propanenitrile]	≤ 0.1	≤ 0.1
Cc1nc2c(F)c(-c3cccc(Cl)c3Cl)c(CCC#N)cc2c2c1cc([C@H]1[C@H]3C[C@H](C[C@@H]3OC(F)F)N1C(=O)C1(F)CC1)n2[C@H]1[C@H]2CN[C@@H]1C2 (atropisomer, axis not shown; (Ra)) [Example 10, 3-((Ra)-1-((1R,4R,5S)-2-Azabicyclo[2.1.1]hexan-5-yl)-7-(2,3-dichlorophenyl)-2-((1R,3R,4R,5S)-5-(difluoromethoxy)-2-(1-fluorocyclopropane-1-carbonyl)-2-azabicyclo[2.2.1]heptan-3-yl)-6-fluoro-4-methyl-1H-pyrrolo[3,2-c]quinolin-8-yl)propanenitrile]	≤ 0.1	≤ 0.1
Cc1nc2c(F)c(-c3cccc(Cl)c3Cl)c(CCC#N)cc2c2c1cc([C@H]1[C@H]3C[C@H]([C@@H]4C[C@@H]43)N1C(=O)C1CC1)n2C1C2CNC1C2 (stereo partly drawn) [Example 24, 3-(1-(2-azabicyclo[2.1.1]hexan-5-yl)-2-((1S,2S,4R,5R,7R)-6-(cyclopropanecarbonyl)-6-azatricyclo[3.2.1.02,4]octan-7-yl)-7-(2,3-dichlorophenyl)-6-fluoro-4-methyl-1H-pyrrolo[3,2-c]quinolin-8-yl)propanenitrile]	≤ 0.1	≤ 0.1

Now from value to compound:

IC50 [1] [µM]	IC50 [2] [µM]	SMILES
≤ 0.1	≤ 0.1	COC(=O)N1[C@@H]2C[C@@H]([C@@H](OC(F)(F)F)C2)[C@@H]1c1cc2c(C)nc3c(F)c(-c4cccc(Cl)c4Cl)c(CCC#N)cc3c2n1[C@H]1[C@H]2CN[C@@H]1C2 (atropisomer, axis not shown; (Ra)) [Example 40, Methyl (1R,3R,4R,5S)-3-((Ra)-1-((1R,4R,5S)-2-azabicyclo[2.1.1]hexan-5-yl)-8-(2-cyanoethyl)-7-(2,3-dichlorophenyl)-6-fluoro-4-methyl-1H-pyrrolo[3,2-c]quinolin-2-yl)-5-(trifluoromethoxy)-2-azabicyclo[2.2.1]heptane-2-carboxylate]
≤ 0.1	≤ 0.1	C[C@@H](O)c1nc2c(F)c(-c3cccc(Cl)c3Cl)c(CCC#N)cc2c2c1cc([C@H]1[C@H]3C[C@H](C[C@@H]3F)N1C(=O)C1(F)CC1)n2[C@H]1[C@H]2CN[C@@H]1C2 (atropisomer, axis not shown) [Example 32, 3-((R)-1-((1R,4R,5S)-2-azabicyclo[2.1.1]hexan-5-yl)-7-(2,3-dichlorophenyl)-6-fluoro-2-((1R,3R,4R,5S)-5-fluoro-2-(1-fluorocyclopropane-1-carbonyl)-2-azabicyclo[2.2.1]heptan-3-yl)-4-((R)-1-hydroxyethyl)-1H-pyrrolo[3,2-c]quinolin-8-yl)propanenitrile]
